Experimental data reported in US4415567A, “7α-Methoxycephalosporin derivatives, and antibacterial drugs containing the same” (Eisai Co., Ltd., priority 1980, dated 1983).
Converted amounts (≈) assume the structure as drawn.

Assays:
Assay type in all cases: cell-based
Proteus morganii EP-14 = assay: MIC, standard agar dilution method, Proteus morganii EP-14; conditions: Morganella morganii, EP14, Mueller Hinton agar, 18 hours, 37° C.
Method: (§1) Minimal inhibitory concentration (MIC) was determined by the standard agar dilution method of the Japan Society of Chemotherapy.
(§2) Compounds were dissolved in appropriate solvents (sterilized water for sodium salts and acetone-water [1:1] for free acids) and serial two-fold dilutions were made. Sodium salt of Cefazolin was chosen as the control compound.
(§3) One-ml aliquots of each dilution were mixed with 9 ml of Mueller Hinton gar in petri-dishes to make agar plates containing the compound at serially diluted concentrations. After agar hardened, plates were put in an incubator at 37° C. for 1.5-2 hours with the lids slightly open to evaporate acetone off the plates.
(§4) Test organisms were grown for 18 hours at 37° C. in Trypticase Soy broth and diluted in saline to approximately 10^6 colony forming units per ml. A loopful of each cell suspension was applied on the agar plate mentioned above and the plates were incubated for 18 hours at 37° C. before MIC was determined.
(§5) The results are shown in Table 2, wherein the compound of Example 5 was selected and used in a form of free carboxylic acid as set forth in the Example 5, Item (a).

[1] = system: Klebsielle pneumoniae EK-6; assay: MIC, standard agar dilution method, Klebsielle pneumoniae EK-6; conditions: Klebsielle pneumoniae EK-6; Mueller Hinton agar, 18 hours, 37° C.; read-out: MIC
Method: as §1, §2, §3, §4, §5

[2] = system: Staphylococcus aureus 209-P; assay: MIC, standard agar dilution method, Staphylococcus aureus 209-P; conditions: Mueller Hinton agar, 18 hours, 37° C.
Method: as §1, §2, §3, §4, §5

[3] = system: Pseudomonas aeruginosa EP-172; assay: MIC, standard agar dilution method, Pseudomonas aeruginosa EP-172; conditions: EP172, Mueller Hinton agar, 18 hours, 37° C.
Method: as §1, §2, §3, §4, §5

[4] = system: Serratia marcescens ES-75; assay: MIC, standard agar dilution method, Serratia marcescens ES-75; conditions: ES75, Mueller Hinton agar, 18 hours, 37° C.
Method: as §1, §2, §3, §4, §5

Escherichia coli NIHJ = assay: MIC, standard agar dilution method, Escherichia coli NIHJ; conditions: Escherichia coli NIHJ; Mueller Hinton agar, 18 hours, 37° C.; read-out: MIC
Method: as §1, §2, §3, §4, §5

Proteus bulgaris E-18 = assay: MIC, standard agar dilution method, Proteus bulgaris E-18; conditions: Mueller Hinton agar, 18 hours, 37° C.
Method: as §1, §2, §3, §4, §5

| SMILES | MIC (Proteus morganii EP-14) [µg/mL] | MIC [1] [µg/mL] | MIC [2] [µg/mL] | MIC [3] [µg/mL] | MIC [4] [µg/mL] | MIC (Escherichia coli NIHJ) [µg/mL] | MIC (Proteus bulgaris E-18) [µg/mL] |
| --- | --- | --- | --- | --- | --- | --- | --- |
| CO[C@@]1(NC(=O)[C@H](NC(=O)c2coc3cc(O)c(O)cc3c2=O)c2ccccc2)C(=O)N2C(C(=O)O)=C(CSc3nnc(C)s3)CS[C@@H]21 [Example 6, 7β-[D-2-(6,7-Dihydroxychromone-3-carboxyamido)-2-phenylacetamido]-7α-methoxy-3-[2-5-methyl-2-(1,3,4-thiadiazolyl)]thiomethyl-3-cepnem-4-carboxylic acid] | 12.5 (≈ 17.6 µM) | ≤ 0.1 | 3.13 (≈ 4.4 µM) | 3.13 (≈ 4.4 µM) | ≤ 0.1 | 0.8 (≈ 1.12 µM) | 0.8 (≈ 1.12 µM) |
| CO[C@@]1(NC(=O)[C@H](NC(=O)c2coc3ccccc3c2=O)c2ccc(O)cc2)C(=O)N2C(C(=O)O)=C(CSc3nnnn3C)CS[C@@H]21 [Example 10, 7β-[D-2-(Chromone-3-carboxamido)-2-(4-hydroxyphenyl)acetamido]-7α-methoxy-3-(1-methyl-5-tetrazolyl)thiomethyl-3-cephem-4-carboxylic acid] | 25 (≈ 36.8 µM) | 12.5 (≈ 18.4 µM) | 0.4 (≈ 0.589 µM) | 25 (≈ 36.8 µM) | 12.5 (≈ 18.4 µM) | 12.5 (≈ 18.4 µM) | 50 (≈ 73.6 µM) |
| CO[C@@]1(NC(=O)[C@H](NC(=O)c2coc3c(O)c(O)ccc3c2=O)c2ccccc2)C(=O)N2C(C(=O)O)=C(COC(C)=O)CS[C@@H]21 [Example 7, 7β-[D-2-(7,8-Dihydroxychromone-3-carboxyamido)-2-phenylacetamido]-7α-methoxy-3-acetoxymethyl-3-cephem-4-carboxylic acid] | 100 (≈ 156 µM) | 0.2 (≈ 0.313 µM) | 6.25 (≈ 9.77 µM) | 3.13 (≈ 4.89 µM) | 12.5 (≈ 19.5 µM) | 3.13 (≈ 4.89 µM) | 50 (≈ 78.2 µM) |
| CO[C@@]1(NC(=O)[C@H](NC(=O)c2coc3cc(O)c(O)cc3c2=O)c2ccc(O)cc2)C(=O)N2C(C(=O)O)=C(CSc3nnnn3CCN(C)C)CS[C@@H]21 [Example 31, 7β-[D-2-(6,7-Dihydroxychromone-3-carboxamido)-2-(4-hydroxyphenyl)acetamido]-7α-methoxy-3-[1-[2-(N,N-dimethylamino)ethyl]-5-tetrazolyl]thiomethyl-3-cephem-4-carboxylic acid] | 25 (≈ 32.5 µM) | ≤ 0.1 | 3.13 (≈ 4.07 µM) | 0.8 (≈ 1.04 µM) | 0.4 (≈ 0.52 µM) | 12.5 (≈ 16.3 µM) | 3.13 (≈ 4.07 µM) |
| CO[C@@]1(NC(=O)[C@H](NC(=O)c2coc3cc(OC(C)=O)c(OC(C)=O)cc3c2=O)c2ccc(O)cc2)C(=O)N2C(C(=O)O)=C(CSc3nnnn3C)CS[C@@H]21 [Example 1, 7β-[D-2-(6,7-Diacetoxychromone-3-carboxamido)-2-(4-hydroxyphenyl)acetamido]-7α-methoxy-3-(1-methyl-5-tetrazolyl)thiomethyl-3-cephem-4-carboxylic acid] | 3.13 (≈ 3.93 µM) | ≤ 0.1 | 1.56 (≈ 1.96 µM) | 0.4 (≈ 0.503 µM) | ≤ 0.1 | 0.4 (≈ 0.503 µM) | 0.4 (≈ 0.503 µM) |
| CO[C@@]1(NC(=O)[C@H](NC(=O)c2coc3cc(O)c(O)cc3c2=O)c2ccc(O)cc2)C(=O)N2C(C(=O)O)=C(CSc3nnc(CC(=O)O)o3)CS[C@@H]21 [Example 29, 7β-[D-2-(6,7-Dihydroxychromone-3-carboxamido)-2-(4-hydroxyphenyl)acetamido]-7α-methoxy-3-[5-carboxymethyl-2-(1,3,4-oxadiazolyl)]thiomethyl-3-cephem-4-carboxylic acid] | 25 (≈ 33.1 µM) | ≤ 0.1 | 6.25 (≈ 8.27 µM) | 0.8 (≈ 1.06 µM) | 0.8 (≈ 1.06 µM) | 12.5 (≈ 16.5 µM) | 3.13 (≈ 4.14 µM) |
| CO[C@@]1(NC(=O)[C@H](NC(=O)c2coc3cc(O)c(O)cc3c2=O)c2ccc(O)cc2)C(=O)N2C(C(=O)O)=C(CSc3nnc(CC(=O)O)s3)CS[C@@H]21 [Example 28, 7β-[D-2-(6,7-Dihydroxychromone-3-carboxamido)-2-(4-hydroxyphenyl)acetamido]-7α-methoxy-3-[5-carboxymethyl-2-(1,3,4-thiadiazolyl)]thiomethyl-3-cephem-4-carboxylic acid] | 12.5 (≈ 16.2 µM) | ≤ 0.1 | 3.13 (≈ 4.06 µM) | 0.8 (≈ 1.04 µM) | 0.4 (≈ 0.518 µM) | 3.13 (≈ 4.06 µM) | 1.56 (≈ 2.02 µM) |
| CCOC(=O)Oc1cc2occ(C(=O)N[C@@H](C(=O)N[C@]3(OC)C(=O)N4C(C(=O)O)=C(COC(C)=O)CS[C@@H]43)c3ccc(O)cc3)c(=O)c2cc1OC(=O)OCC [Example 22, 7β-[D-2-(6,7-Bis(ethoxycarbonyloxy)chromone-3-carboxamido)-2-(4-hydroxyphenyl)acetamido]-7α-methoxy-3-acetoxymethyl-3-cephem-4-carboxylic acid] | 25 (≈ 31.3 µM) | ≤ 0.1 | 1.56 (≈ 1.95 µM) | 0.8 (≈ 1 µM) | 0.4 (≈ 0.5 µM) | 6.25 (≈ 7.82 µM) | 1.56 (≈ 1.95 µM) |
| CO[C@@]1(NC(=O)[C@H](NC(=O)c2coc3cc(OC(=O)OCC(Cl)(Cl)Cl)c(OC(=O)OCC(Cl)(Cl)Cl)cc3c2=O)c2ccccc2)C(=O)N2C(C(=O)O)=C(COC(C)=O)CS[C@@H]21 [Example 24, 7β-[D-2-(6,7-Bis(2,2,2-trichloroethoxy-carbonyloxy)chromon-3-carboxamido)2-phenylacetamido]-7α-methoxy-3-acetoxymethyl-3-cephem-4-carboxylic acid] | 25 (≈ 25.2 µM) | ≤ 0.1 | 6.25 (≈ 6.31 µM) | 1.56 (≈ 1.58 µM) | 0.8 (≈ 0.808 µM) | 12.5 (≈ 12.6 µM) | 3.13 (≈ 3.16 µM) |
| CO[C@@]1(NC(=O)[C@H](NC(=O)c2coc3c(OC(C)=O)c(OC(C)=O)ccc3c2=O)c2ccc(O)cc2)C(=O)N2C(C(=O)O)=C(CSc3nnnn3C)CS[C@@H]21 [Example 2] | 50 (≈ 62.8 µM) | ≤ 0.1 | 1.56 (≈ 1.96 µM) | 0.8 (≈ 1.01 µM) | 0.8 (≈ 1.01 µM) | 3.13 (≈ 3.93 µM) | 6.25 (≈ 7.85 µM) |
| CO[C@@]1(NC(=O)[C@H](NC(=O)c2coc3cc(O)c(O)cc3c2=O)c2ccc(O)cc2)C(=O)N2C(C(=O)O)=C(CSc3nnnn3CC(=O)O)CS[C@@H]21 [Example 15, 7β-[D-2-(6,7-Dihydroxychromone-3-carboxamido)-2-(4-hydroxyphenyl)acetamido]-7α-methoxy-3-(1-carboxymethyl-5-tetrazolyl)thiomethyl-3-cephem-4-carboxylic acid] | 12.5 (≈ 16.5 µM) | ≤ 0.1 | 6.25 (≈ 8.27 µM) | 3.13 (≈ 4.14 µM) | 0.4 (≈ 0.529 µM) | 6.25 (≈ 8.27 µM) | 1.56 (≈ 2.06 µM) |
| CO[C@@]1(NC(=O)[C@H](NC(=O)c2coc3c(C)c(OCc4ccccc4)ccc3c2=O)c2ccccc2)C(=O)N2C(C(=O)O)=C(COC(C)=O)CS[C@@H]21 [Example 13, 7β-[D-2-(7-Benzyloxy-8-methylchromone-3-carboxamido)-2-phenylacetamido]-7α-methoxy-3-acetoxymethyl-3-cephem-4-carboxylic acid] | 1.56 (≈ 2.14 µM) | 3.13 (≈ 4.3 µM) | 0.4 (≈ 0.55 µM) | 12.5 (≈ 17.2 µM) | 3.13 (≈ 4.3 µM) | 3.13 (≈ 4.3 µM) | 0.8 (≈ 1.1 µM) |
| CO[C@@]1(NC(=O)[C@H](NC(=O)c2coc3c(O)c(O)ccc3c2=O)c2ccc(O)cc2)C(=O)N2C(C(=O)O)=C(CSc3nnnn3CC(=O)O)CS[C@@H]21 [Example 18, 7β-[D-2-(7,8-Dihydroxychromone-3-carboxamido)-2-(4-hydroxyphenyl)acetamido]-7α-methoxy-3-(1-carboxymethyl-5-tetrazolyl)thiomethyl-3-cephem-4-carboxylic acid] | 50 (≈ 66.2 µM) | 0.8 (≈ 1.06 µM) | 25 (≈ 33.1 µM) | 6.25 (≈ 8.27 µM) | 3.13 (≈ 4.14 µM) | 25 (≈ 33.1 µM) | 6.25 (≈ 8.27 µM) |
| CO[C@@]1(NC(=O)[C@H](NC(=O)c2coc3cc(OC(=O)OCC(Cl)(Cl)Cl)c(OC(=O)OCC(Cl)(Cl)Cl)cc3c2=O)c2ccc(O)cc2)C(=O)N2C(C(=O)O)=C(COC(C)=O)CS[C@@H]21 [Example 25, 7β-[D-2-(6,7-Bis(2,2,2-trichloroethoxycarbonyloxy)chromone-3-carboxamido)-2-(4-hydroxyphenyl)acetamido]-7α-methoxy-3-acetoxymethyl-3-cephem-4-carboxylic acid] | 25 (≈ 24.8 µM) | ≤ 0.1 | 3.13 (≈ 3.11 µM) | 0.8 (≈ 0.795 µM) | 0.8 (≈ 0.795 µM) | 12.5 (≈ 12.4 µM) | 3.13 (≈ 3.11 µM) |
| CO[C@@]1(NC(=O)[C@H](NC(=O)c2coc3cc(O)c(O)cc3c2=O)c2ccc(O)cc2)C(=O)N2C(C(=O)O)=C(CSc3nncs3)CS[C@@H]21 [Example 33, 7β-[D-2-(6,7-Dihydroxychromone-3-carboxamido)-2-(4-hydroxyphenyl)acetamido]-7α-methoxy-3-[2-(1,3,4-thiadiazolyl)]thiomethyl-3-cephem-4-carboxylic acid] | 25 (≈ 35 µM) | ≤ 0.1 | 1.56 (≈ 2.19 µM) | 0.4 (≈ 0.56 µM) | 0.2 (≈ 0.28 µM) | 6.25 (≈ 8.76 µM) | 1.56 (≈ 2.19 µM) |
